The text below walks through data of paper PMC9942140 (Journal of medicinal chemistry, 2022).

This experiment addresses T1, hepatocyte nuclear factor 4α (HNF4α) (Homo sapiens, UniProt P41235).
T1 sequence (P41235 147-377): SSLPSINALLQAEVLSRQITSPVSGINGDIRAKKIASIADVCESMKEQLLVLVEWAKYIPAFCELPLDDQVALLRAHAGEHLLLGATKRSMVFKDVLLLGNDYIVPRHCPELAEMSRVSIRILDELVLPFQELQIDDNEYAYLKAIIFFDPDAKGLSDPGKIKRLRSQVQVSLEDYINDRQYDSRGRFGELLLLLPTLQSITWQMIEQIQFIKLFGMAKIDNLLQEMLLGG
Kind of experiment: intrinsic tyrosine/tryptophan fluorescence quenching titration of purified LBD. The format is binding.

Compound `COc1cc(C)c(C(C)C)cc1S(=O)(=O)N(CC(O)Cn1nnnc1-c1ccccn1)c1ccccc1C` (racemic) [compound 33, N-(2-Hydroxy-3-(5-(pyridin-2-yl)-1H-tetrazol-1-yl)propyl)-5-isopropyl-2-methoxy-4-methyl-N-(o-tolyl)benzenesulfonamide] came in with a Kd of 312 nM.

The Kd is the constant that tells how readily two partners part at equilibrium. A high value points to a looser complex.
